Columns and labels:
[1] = compared with MPA; cited from earlier work
[2] = tested on: human type II IMPDH mutants of Ser 275, Ser 327 and Gln 368; assay: MPA inhibition of IMPDH mutants of other active site residues; format: biochemical; settings: mutations of Ser 275, Ser 327 and Gln 368
Protocol: Residues which make direct contact with MPA also were modified.
Cultures (500 ml) were grown at 37° C. for 14 to 16 hours after IPTG induction, and typically yielded 2 grams of cell paste. Cells were resuspended in 50 mM Tris, pH 8.0, 150 mM KCl, 3 mM EDTA, 2 mM DTT buffer containing 10% urea, and then lysed by addition of lysozyme (1 mg/g cell paste) and sonication. IMPDH wild-type and mutant proteins were precipitated from crude lysates by 25% w/v ammonium sulfate. Up to 150 mgs of at least 65%-70% pure IMPDH was obtained by this single purification step. The partially purified IMPDH was resuspended in 50 mM Tris, pH 8.0, 100 mM KCl, 3 mM EDTA, 2 mM DTT, 10% glycerol buffer and used for kinetic analysis. Second order rate constants (k cat/Km, M^−1sec^−1) were calculated from IMP titration data at saturating (400 mM). NAD concentration obtained by monitoring the rate of NADH production at 340 nm at 37° C. […] Ki app. values for MPA were obtained from the rate vs. inhibitor data of IMPDH mutants at saturating IMP and NAD concentrations.

murine blastoma cells = settings: cells selected for resistance, carrying the Thr 333 to Ile mutation; cited from earlier work

Compound | fold less potent than MPA in a cellular assay [1] | effect of mutation on drug inhibition [2] | increased resistance to MPA (murine blastoma cells)
COc1c(CC=C(C)CCC(=O)O)cc2c(c1C)COC2=O [des-hydroxy-MPA] | at least 1,000 fold | – | –
mycophenolic acid [MPA] | – | little effect | 10,000 fold
